According to patent publication US12122778B2, “Activating pyruvate kinase R” (Novo Nordisk Health Care AG, priority 2018, dated 2024):

Assays:
[1] = target: PKR(G332S) (Homo sapiens, UniProt P30613, G332S); experiment: Luminescence Biochemical Assay (Kinase Glo Plus), PKR G332S mutant; settings: with FBP; for activation at 1.54 µM: 1.54 μM compound, read-out: AC50 LUM KGP FBP % Fold@1.54 μM mean; for AC50: read-out: AC50 LUM KGP FBP AC50 μM gmean (column A); for Emax: read-out: AC50 LUM KGP FBP MAX % FOLD mean
PKR(G332S), sequence (P30613 whole entry G332S): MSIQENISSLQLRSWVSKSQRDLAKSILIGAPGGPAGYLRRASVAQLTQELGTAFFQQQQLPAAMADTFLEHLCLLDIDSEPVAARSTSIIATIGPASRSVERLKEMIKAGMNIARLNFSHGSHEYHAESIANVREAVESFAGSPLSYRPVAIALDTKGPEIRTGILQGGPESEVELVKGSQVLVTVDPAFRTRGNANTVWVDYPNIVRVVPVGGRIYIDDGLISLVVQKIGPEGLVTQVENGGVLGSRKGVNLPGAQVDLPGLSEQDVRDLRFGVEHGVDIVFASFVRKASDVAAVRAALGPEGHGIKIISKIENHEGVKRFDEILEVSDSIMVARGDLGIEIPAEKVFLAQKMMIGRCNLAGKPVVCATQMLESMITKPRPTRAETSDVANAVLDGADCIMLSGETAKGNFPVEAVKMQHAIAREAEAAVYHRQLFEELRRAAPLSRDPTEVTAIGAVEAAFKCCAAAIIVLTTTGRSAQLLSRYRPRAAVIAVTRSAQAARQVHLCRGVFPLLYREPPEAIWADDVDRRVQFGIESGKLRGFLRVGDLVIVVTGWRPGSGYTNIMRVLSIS

[2] = target: PKR(R510Q) (Homo sapiens, UniProt P30613, R510Q); experiment: Luminescence Biochemical Assay (Kinase Glo Plus), PKR R510Q mutant; settings: without FBP; for activation at 1.54 µM: 1.54 μM compound, read-out: AC50 LUM KGP woFBP % Fold@1.54 μM mean; for AC50: read-out: AC50 LUM KGP woFBP AC50 μM gmean; for Emax: read-out: AC50 LUM KGP woFBP MAX % FOLD mean
PKR(R510Q), sequence (P30613 whole entry R510Q): as the sequence (P30613 whole entry G332S) above, with S332G, R510Q counted along it

[3] = target: PKR(wt) (Homo sapiens, UniProt P30613); experiment: Luminescence Biochemical Assay (Kinase Glo Plus), wild type PKR; settings: without FBP; for activation at 1.54 µM: 1.54 μM compound, read-out: AC50 LUM KGP woFBP % Fold@1.54 μM mean; for AC50: read-out: AC50 LUM KGP woFBP AC50 μM gmean; for Emax: read-out: AC50 LUM KGP woFBP MAX % FOLD mean
PKR(wt), sequence (P30613 whole entry): as the sequence (P30613 whole entry G332S) above, with S332G counted along it

Row | SMILES | activation at 1.54 µM [1] [%] | AC50 [1] [µM] | Emax [1] [%] | activation at 1.54 µM [2] [%] | AC50 [2] [µM] | Emax [2] [%] | activation at 1.54 µM [3] [%] | AC50 [3] [µM] | Emax [3] [%]
1 | COc1cccc(CNC(=O)N2CC3=C(C2)CN(S(=O)(=O)c2ccc(OC(F)F)cc2)C3)c1 [Example 21-11, 5-[4-(Difluoromethoxy)benzenesulfonyl]-N-[(3-methoxyphenyl)methyl]-1H,2H,3H,4H,5H,6H-pyrrolo[3,4-c]pyrrole-2-carboxamide] | 75 to 250 | ≤ 0.1 | 75 to 250 | 250 to 50000 | ≤ 0.1 | 250 to 500 | 250 to 50000 | ≤ 0.1 | 250 to 500
2 | O=C(N1CC2=C(C1)CN(S(=O)(=O)c1ccccn1)C2)C1(O)CC1 [Example 18-65, 1-[5-(Pyridine-2-sulfonyl)-1H,2H,3H,4H,5H,6H-pyrrolo[3,4-c]pyrrole-2-carbonyl]cyclopropan-1-ol] | 75 to 250 | 1 to 40 | 75 to 250 | 75 to 250 | 1 to 40 | 75 to 250 | 75 to 250 | 1 to 40 | 250 to 500
3 | O=C([C@H](O)c1ccc(F)cc1)N1CC2=C(C1)CN(S(=O)(=O)c1ccccn1)C2 [Example 18-63, (2R)-2-(4-fluorophenyl)-2-hydroxy-1-[5-(pyridine-2-sulfonyl)-1H,2H,3H,4H,5H,6H-pyrrolo[3,4-c]pyrrol-2-yl]ethan-1-one] | 75 to 250 | 1 to 40 | 75 to 250 | 250 to 50000 | 0.1 to 1 | 250 to 500 | 75 to 250 | 0.1 to 1 | 250 to 500
4 | COc1ccccc1CNC(=O)N1CC2=C(C1)CN(S(=O)(=O)c1ccc3ncsc3c1)C2 [Example 21-18, 5-(1,3-Benzothiazole-6-sulfonyl)-N-[(2-methoxyphenyl)methyl]-1H,2H,3H,4H,5H,6H-pyrrolo[3,4-c]pyrrole-2-carboxamide] | 75 to 250 | ≤ 0.1 | 75 to 250 | 250 to 50000 | 0.1 to 1 | 250 to 500 | 250 to 50000 | 0.1 to 1 | 250 to 500
5 | O=C([C@H](O)c1ccc(F)cc1)N1CC2=C(C1)CN(S(=O)(=O)c1ccc(C(F)(F)F)nc1)C2 [Example 18-64, (2R)-2-(4-fluorophenyl)-2-hydroxy-1-(5-{[6-(trifluoromethyl)pyridin-3-yl]sulfonyl}-1H,2H,3H,4H,5H,6H-pyrrolo[3,4-c]pyrrol-2-yl)ethan-1-one] | 75 to 250 | 1 to 40 | 75 to 250 | 75 to 250 | 1 to 40 | 75 to 250 | 75 to 250 | 1 to 40 | 75 to 250
6 | O=C(NCc1ccccc1F)N1CC2=C(C1)CN(S(=O)(=O)c1ccc(OC(F)F)cc1)C2 [Example 21-15, 5-[4-(Difluoromethoxy)benzenesulfonyl]-N-[(2-fluorophenyl)methyl]-1H,2H,3H,4H,5H,6H-pyrrolo[3,4-c]pyrrole-2-carboxamide] | 75 to 250 | ≤ 0.1 | 75 to 250 | 250 to 50000 | ≤ 0.1 | 250 to 500 | 250 to 50000 | ≤ 0.1 | 250 to 500
7 | O=C([C@H]1CCCO1)N1CC2=C(C1)CN(S(=O)(=O)c1cccnc1)C2 [Example 18-59, 3-({5-[(2R)-oxolane-2-carbonyl]-1H,2H,3H,4H,5H,6H-pyrrolo[3,4-c]pyrrol-2-yl}sulfonyl)pyridine] | 75 to 250 | 1 to 40 | 75 to 250 | 75 to 250 | 1 to 40 | 75 to 250 | 75 to 250 | 1 to 40 | 75 to 250
8 | O=C([C@H](O)c1ccccc1)N1CC2=C(C1)CN(S(=O)(=O)c1cccnc1)C2 [Example 4-1, (2R)-2-hydroxy-2-phenyl-1-[5-(pyridine-3-sulfonyl)-1H,2H,3H,4H,5H,6H-pyrrolo[3,4-c]pyrrol-2-yl]ethan-1-one] | 75 to 250 | 0.1 to 1 | 75 to 250 | 75 to 250 | 1 to 40 | 250 to 500 | 75 to 250 | 0.1 to 1 | 75 to 250
9 | N#Cc1ccccc1S(=O)(=O)N1CC2=C(CN(C(=O)[C@H](O)c3ccccc3)C2)C1 [Example 18-47, 2-({5-[(2R)-2-hydroxy-2-phenylacetyl]-1H,2H,3H,4H,5H,6H-pyrrolo[3,4-c]pyrrol-2-yl}sulfonyl)benzonitrile] | 75 to 250 | 1 to 40 | 75 to 250 | 75 to 250 | 0.1 to 1 | 75 to 250 | 75 to 250 | 0.1 to 1 | 75 to 250
10 | O=C(NCc1ccccc1F)N1CC2=C(C1)CN(S(=O)(=O)c1ccccn1)C2 [Example 21-42] | 75 to 250 | 0.1 to 1 | 75 to 250 | 250 to 50000 | 0.1 to 1 | 250 to 500 | 250 to 50000 | 0.1 to 1 | 250 to 500
11 | NS(=O)(=O)c1cccc(S(=O)(=O)N2CC3=C(CN(C(=O)[C@H](O)c4ccccc4)C3)C2)c1 [Example 17-1, 3-[5-[(2R)-2-hydroxy-2-phenylacetyl]-1H,2H,3H,4H,5H,6H-pyrrolo[3,4-c]pyrrole-2-sulfonyl]benzene-1-sulfonamide] | 75 to 250 | 1 to 40 | 75 to 250 | 75 to 250 | 1 to 40 | 75 to 250 | 75 to 250 | 1 to 40 | 75 to 250
12 | O=C(NCc1ccc(F)cc1)N1CC2=C(C1)CN(S(=O)(=O)c1ccccn1)C2 [Example 21-41, N-[(4-fluorophenyl)methyl]-5-(pyridine-2-sulfonyl)-1H,2H,3H,4H,5H,6H-pyrrolo[3,4-c]pyrrole-2-carboxamide] | 75 to 250 | 1 to 40 | 75 to 250 | 75 to 250 | 0.1 to 1 | 75 to 250 | 75 to 250 | 0.1 to 1 | 250 to 500
13 | CC(C)Oc1ccc(S(=O)(=O)N2CC3=C(CN(C(=O)[C@H](O)c4ccccc4)C3)C2)cc1 [Example 18-12, (2R)-2-hydroxy-2-phenyl-1-{5-[4-(propan-2-yloxy)benzenesulfonyl]-1H,2H,3H,4H,5H,6H-pyrrolo[3,4-c]pyrrol-2-yl}ethan-1-one] | 75 to 250 | 0.1 to 1 | 75 to 250 | 75 to 250 | 1 to 40 | 250 to 500 | 75 to 250 | 0.1 to 1 | 75 to 250
14 | O=C([C@H](O)c1ccc(F)cc1)N1CC2=C(C1)CN(S(=O)(=O)c1ccc(OC(F)F)cc1)C2 [Example 18-31, (2R)-1-{5-[4-(difluoromethoxy)benzenesulfonyl]-1H,2H,3H,4H,5H,6H-pyrrolo[3,4-c]pyrrol-2-yl}-2-(4-fluorophenyl)-2-hydroxyethan-1-one] | 75 to 250 | ≤ 0.1 | 75 to 250 | 250 to 50000 | ≤ 0.1 | 250 to 500 | 250 to 50000 | ≤ 0.1 | 250 to 500
15 | O=C(C(O)c1cccc(F)c1)N1CC2=C(C1)CN(S(=O)(=O)c1ccc(OC(F)F)cc1)C2 (stereo not drawn) [Example 18-22, 1-{5-[4-(Difluoromethoxy)benzenesulfonyl]-1H,2H,3H,4H,5H,6H-pyrrolo[3,4-c]pyrrol-2-yl}-2-(3-fluorophenyl)-2-hydroxyethan-1-one] | 75 to 250 | ≤ 0.1 | 75 to 250 | 250 to 50000 | 0.1 to 1 | 250 to 500 | 75 to 250 | 0.1 to 1 | 250 to 500
16 | O=C(N1CCOCC1)N1CC2=C(C1)CN(S(=O)(=O)c1ccc3ncsc3c1)C2 [Example 6-1, (5-(benzo[d]thiazol-6-ylsulfonyl)-3,4,5,6-tetrahydropyrrolo[3,4-c]pyrrol-2(1H)-yl)(morpholino)methanone] | 75 to 250 | 1 to 40 | 75 to 250 | 75 to 250 | 1 to 40 | 250 to 500 | 75 to 250 | 1 to 40 | 250 to 500
17 | O=C(N1CC2=C(C1)CN(S(=O)(=O)c1cccc3cccnc13)C2)N1CC(O)(Cc2ccccc2)C1 [Example 12-1, (3-Benzyl-3-hydroxyazetidin-1-yl)(5-(quinolin-8-ylsulfonyl)-4,5-dihydropyrrolo[3,4-c]pyrrol-2(1H,3H,4)-yl)methanone] | 75 to 250 | 1 to 40 | 75 to 250 | 75 to 250 | 1 to 40 | 75 to 250 | 75 to 250 | 1 to 40 | 75 to 250
18 | O=C([C@H](O)c1ccc2c(c1)CNCC2)N1CC2=C(C1)CN(S(=O)(=O)c1ccc(OC(F)F)cc1)C2 (single isomer, unassigned) [Example 11-2] | 75 to 250 | 0.1 to 1 | 75 to 250 | 250 to 50000 | ≤ 0.1 | 250 to 500 | 75 to 250 | ≤ 0.1 | 250 to 500
